Paper PMC7110780, “Multimodular fused acetyl–feruloyl esterases from soil and gut Bacteroidetes improve xylanase depolymerization of recalcitrant biomass” (Biotechnology for Biofuels, 2020)

Target: T1, BoCE6–CE1 (Bacteroides ovatus, UniProt A0ABU3ING8)
T1 construct: gene RO706_05995
Assay: absorbance […] nm
Type: biochemical
Settings: […] °C, […] buffer

T1 sequence (A0ABU3ING8 20-638): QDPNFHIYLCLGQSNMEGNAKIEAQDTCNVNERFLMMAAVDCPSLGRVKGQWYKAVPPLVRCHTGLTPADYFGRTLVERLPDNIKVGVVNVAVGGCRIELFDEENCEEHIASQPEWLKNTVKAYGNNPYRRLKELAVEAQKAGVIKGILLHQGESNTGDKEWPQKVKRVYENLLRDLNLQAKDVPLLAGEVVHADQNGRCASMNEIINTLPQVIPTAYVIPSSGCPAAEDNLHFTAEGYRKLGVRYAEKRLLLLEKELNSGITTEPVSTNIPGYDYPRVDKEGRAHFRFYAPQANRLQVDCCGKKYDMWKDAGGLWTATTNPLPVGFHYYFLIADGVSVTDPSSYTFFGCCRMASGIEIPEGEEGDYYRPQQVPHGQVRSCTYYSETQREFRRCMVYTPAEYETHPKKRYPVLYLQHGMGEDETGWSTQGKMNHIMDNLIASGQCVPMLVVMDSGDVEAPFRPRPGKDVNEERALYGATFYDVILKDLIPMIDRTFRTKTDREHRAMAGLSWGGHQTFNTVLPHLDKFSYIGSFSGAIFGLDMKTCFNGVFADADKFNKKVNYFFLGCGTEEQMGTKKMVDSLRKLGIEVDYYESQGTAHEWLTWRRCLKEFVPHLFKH

Compound | absorbance 340 nm
COC(=O)/C=C/c1ccc(O)c(OC)c1 [MFA] | The activity on MFA and MSA was in the same order of magnitude for the full-length
COC(=O)/C=C/c1cc(OC)c(O)c(OC)c1 [MSA] | The activity on MFA and MSA was in the same order of magnitude for the full-length
